The target in one assay is sTAAR365 Y7.43L (Petromyzon marinus, UniProt A0A678XMK4, Y299L). Kind of assay: cell-based.
The target in the next assay is sTAAR365 E7.36Q (Petromyzon marinus, UniProt A0A678XMK4, E292Q). Nature of the assay: cell-based.
The target in another assay is T1, sTAAR365 Y6.51L (Petromyzon marinus, UniProt A0A678XMK4, Y272L).
T1 sequence (A0A678XMK4 1-365 Y272L): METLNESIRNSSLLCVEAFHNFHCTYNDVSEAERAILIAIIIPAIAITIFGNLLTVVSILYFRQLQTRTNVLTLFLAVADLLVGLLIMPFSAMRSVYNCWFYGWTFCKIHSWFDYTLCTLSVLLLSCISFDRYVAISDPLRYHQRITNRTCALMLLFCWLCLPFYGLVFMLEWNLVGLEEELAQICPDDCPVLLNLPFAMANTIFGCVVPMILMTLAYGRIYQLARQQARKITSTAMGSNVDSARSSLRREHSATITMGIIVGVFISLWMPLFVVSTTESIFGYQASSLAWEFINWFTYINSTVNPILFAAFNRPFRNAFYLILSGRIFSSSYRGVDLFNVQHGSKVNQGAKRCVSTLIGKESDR
Nature of the assay: cell-based.

The next assay addresses sTAAR365 T7.42S (Petromyzon marinus, UniProt A0A678XMK4, T298S). Nature of the assay: cell-based.
Another assay has as its target sTAAR365 Y7.43F (Petromyzon marinus, UniProt A0A678XMK4, Y299F). Kind of assay: cell-based.
The target in another assay is T2, sTAAR365 T7.42V (Petromyzon marinus, UniProt A0A678XMK4, T298V).
T2 sequence (A0A678XMK4 1-365 T298V): T1 sequence (A0A678XMK4 1-365 Y272L) with L272Y, T298V
Kind of assay: cell-based.

Assay [1] addresses T3, sTAAR365 D3.32E (Petromyzon marinus, UniProt A0A678XMK4, D114E).
T3 sequence (A0A678XMK4 1-365 D114E): T1 sequence (A0A678XMK4 1-365 Y272L) with D114E, L272Y
Kind of assay: cell-based.

In the next assay the target is T4, Rat TAAR9 (Rattus norvegicus, UniProt Q923Y6).
T4 construct: expressed in transfected cells; host or cells: Hana3A (HEK293-derived)
T4 sequence (Q923Y6 1-338): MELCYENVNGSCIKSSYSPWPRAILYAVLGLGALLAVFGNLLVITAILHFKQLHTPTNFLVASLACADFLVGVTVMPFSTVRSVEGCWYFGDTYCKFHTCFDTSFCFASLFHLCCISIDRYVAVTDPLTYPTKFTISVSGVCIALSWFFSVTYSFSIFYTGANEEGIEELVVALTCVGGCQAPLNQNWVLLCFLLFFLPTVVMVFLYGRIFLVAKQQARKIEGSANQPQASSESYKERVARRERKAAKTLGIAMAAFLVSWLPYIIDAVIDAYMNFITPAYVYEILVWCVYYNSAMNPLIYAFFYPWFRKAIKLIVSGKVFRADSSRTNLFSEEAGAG
Kind of assay: CRE-luciferase reporter assay in Hana3A. Type of assay: cell-based. The note with it: rat TAAR9, ligand 1 mM, Fig. 1B. On the procedure: We examined the response of TAAR9s from rat, human, hamster, and rabbit to the stimulation of 1 mM amines using a well-established cAMP response element (CRE)-driven luciferase reporter assay based on Golf-mediated cAMP signal transduction ([5], [24]). In addition to the four mTAAR9 ligands, we included putrescine, which is also a polyamine and precursor of spermine/spermidine biosynthesis.
Mammalian TAAR9 plasmids were transfected into Hana3A cells along with a cAMP-dependent luciferase reporter plasmid (CRE-Luc). Transfected cells were incubated with tested ligands, and luciferase activity was quantified with a […] substrate as a reporter for Golf-mediated TAAR activation. Luciferase activity was indicated by the luminescence value and normalized as a fold-increase over the response to the vehicle stimuli (mean ± S.D., n = 3). […] B, Hana3A cells expressing mouse, rat, human, cat, hamster, and rabbit TAAR9 were incubated with either vehicle or tested ligands (1 mM) and assayed for reporter activity. C, concentration-dependent luciferase activity in Hana3A cells expressing mouse, rat, and cat TAAR9 receptors stimulated with cadaverine, spermidine, and spermine.
The firefly luciferase and renilla luciferase activity was measured with a BioTek microplate reader following manufacturer’s instructions.
(A reporter such as luciferase makes a cellular process visible.)

For assay [2], the target named is T3, sTAAR365 D3.32E.
Another assay deals with sTAAR365 W7.40F (Petromyzon marinus, UniProt A0A678XMK4, W296F). Nature of the assay: cell-based.
Chain of sTAAR365 W7.40F (A0A678XMK4 whole entry W296F): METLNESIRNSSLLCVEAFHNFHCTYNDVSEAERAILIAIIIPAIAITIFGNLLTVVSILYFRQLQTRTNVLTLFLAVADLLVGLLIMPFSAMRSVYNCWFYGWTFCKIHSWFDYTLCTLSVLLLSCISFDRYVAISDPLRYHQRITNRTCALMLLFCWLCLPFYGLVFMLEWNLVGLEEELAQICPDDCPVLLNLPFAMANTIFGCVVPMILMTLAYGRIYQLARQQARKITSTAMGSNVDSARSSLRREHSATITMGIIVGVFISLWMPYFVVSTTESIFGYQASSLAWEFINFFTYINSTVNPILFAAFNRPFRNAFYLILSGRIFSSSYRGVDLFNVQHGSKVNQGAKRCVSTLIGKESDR

Structures are written as SMILES. Residue numbers refer to the chain shown, from its start.

The record followed here is article PMC8546428, “Convergent olfactory trace amine-associated receptors detect biogenic polyamines with distinct motifs via a conserved binding site” (The Journal of Biological Chemistry, 2021).

Chain of sTAAR365 Y7.43F (A0A678XMK4 whole entry Y299F): as the sequence (A0A678XMK4 whole entry W296F) above, with F296W, Y299F counted along it
Chain of sTAAR365 Y7.43L (A0A678XMK4 whole entry Y299L): as the sequence (A0A678XMK4 whole entry W296F) above, with F296W, Y299L counted along it
Chain of sTAAR365 E7.36Q (A0A678XMK4 whole entry E292Q): as the sequence (A0A678XMK4 whole entry W296F) above, with E292Q, F296W counted along it
Chain of sTAAR365 T7.42S (A0A678XMK4 whole entry T298S): as the sequence (A0A678XMK4 whole entry W296F) above, with F296W, T298S counted along it

What is called EC50 is the midpoint of the concentration-response curve. The low end stands for greater potency, the high end for weaker potency. Consider `NCCCCCN` [cadaverine], for which the concentration giving a half-maximal response (EC50) on sTAAR365 Y7.43L was 1 ± 0.2 µM; at sTAAR365 E7.36Q, 0.06 ± 0.011 µM; at sTAAR365 Y6.51L, more than 100 µM; at sTAAR365 T7.42S, 0.126 ± 0.013 µM; at sTAAR365 Y7.43F, 2 ± 0.2 µM; on sTAAR365 T7.42V, 9 ± 2 µM. Further, the EC50 on sTAAR365 D3.32E [1] is 14 ± 0.5 µM; at sTAAR365 W7.40F it was 0.223 ± 0.037 µM. On Rat TAAR9, the “reporter activity (activation of TAAR9)” value is given as “maximum responses”. Moreover, the “Hill slope of concentration-response curve” value at sTAAR365 D3.32E [2] is 1.44. At sTAAR365 D3.32E [2], the “increase of EC50 vs wild-type sTAAR365” value is recorded as “three”.
`NCCCCN` [putrescine]: the EC50 at sTAAR365 Y7.43L is more than 1000 µM; on sTAAR365 Y7.43F it was more than 1000 µM; at sTAAR365 T7.42V, more than 500 µM; on sTAAR365 D3.32E [1] it was more than 500 µM; at sTAAR365 W7.40F it was more than 500 µM. Further, the “reporter activity (activation of TAAR9)” value on Rat TAAR9 is reported as “not activated”. In addition, the “increase of EC50 vs wild-type sTAAR365” value on sTAAR365 D3.32E [2] is “one”.
Consider `NCCCNCCCCNCCCN` [spermine], for which the concentration for a half-maximal effect (EC50) on sTAAR365 E7.36Q is more than 500 µM; on sTAAR365 Y6.51L it was more than 500 µM; at sTAAR365 T7.42S it was 64 ± 7 µM. At Rat TAAR9, the “reporter activity (activation of TAAR9)” value is “maximum responses”.
